We go through one substance from US20200031866A1, “PEPTIDE INHIBITORS OF SODIUM CHANNELS” (SPYRYX BIOSCIENCES, INC., priority 2016, published 2020).

For one series, the system named is proteases. It counts as in vitro ADME.
The target in the next series is T1, ENaC (Homo sapiens, UniProt P37088+P51168+P51170).
T1 construct: endogenous in cells; host or cells: primary human bronchial epithelial cultures (HBECs) at air-liquid interface
T1 sequence (P37088 1-669): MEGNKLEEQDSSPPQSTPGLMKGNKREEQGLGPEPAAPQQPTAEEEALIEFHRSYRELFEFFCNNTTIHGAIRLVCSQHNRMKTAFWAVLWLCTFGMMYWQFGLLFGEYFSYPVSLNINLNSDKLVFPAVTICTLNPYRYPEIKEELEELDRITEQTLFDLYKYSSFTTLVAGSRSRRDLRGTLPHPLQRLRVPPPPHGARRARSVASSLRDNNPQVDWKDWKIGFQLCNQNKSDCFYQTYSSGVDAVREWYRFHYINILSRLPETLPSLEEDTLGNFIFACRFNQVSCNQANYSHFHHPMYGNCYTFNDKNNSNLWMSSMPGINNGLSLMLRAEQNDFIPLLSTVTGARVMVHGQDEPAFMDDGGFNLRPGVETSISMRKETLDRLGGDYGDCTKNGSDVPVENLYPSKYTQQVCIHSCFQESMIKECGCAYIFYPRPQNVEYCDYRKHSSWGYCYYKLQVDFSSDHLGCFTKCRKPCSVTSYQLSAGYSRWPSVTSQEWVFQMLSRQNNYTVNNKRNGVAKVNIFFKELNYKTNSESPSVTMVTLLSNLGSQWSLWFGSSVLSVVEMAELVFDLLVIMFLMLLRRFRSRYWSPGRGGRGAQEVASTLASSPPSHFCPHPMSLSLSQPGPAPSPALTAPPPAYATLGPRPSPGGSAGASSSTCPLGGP
T1 sequence (P51168 1-640): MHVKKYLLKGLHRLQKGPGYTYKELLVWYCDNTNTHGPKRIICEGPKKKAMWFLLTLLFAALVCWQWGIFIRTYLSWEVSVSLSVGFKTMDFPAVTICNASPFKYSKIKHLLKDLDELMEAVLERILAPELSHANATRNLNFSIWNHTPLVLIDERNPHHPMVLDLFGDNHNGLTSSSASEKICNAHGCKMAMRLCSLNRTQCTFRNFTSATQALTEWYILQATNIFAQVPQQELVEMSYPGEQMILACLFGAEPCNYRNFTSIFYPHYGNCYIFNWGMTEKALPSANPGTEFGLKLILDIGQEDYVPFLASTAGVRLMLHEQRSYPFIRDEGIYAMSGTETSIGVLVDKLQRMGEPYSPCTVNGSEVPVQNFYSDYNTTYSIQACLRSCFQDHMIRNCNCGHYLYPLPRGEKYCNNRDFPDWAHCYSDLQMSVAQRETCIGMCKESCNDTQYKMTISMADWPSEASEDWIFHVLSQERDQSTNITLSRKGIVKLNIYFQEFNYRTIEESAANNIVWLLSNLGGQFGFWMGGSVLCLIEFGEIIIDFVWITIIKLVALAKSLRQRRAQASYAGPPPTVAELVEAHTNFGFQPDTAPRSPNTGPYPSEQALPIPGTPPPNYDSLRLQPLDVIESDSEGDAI
T1 sequence (P51170 1-649): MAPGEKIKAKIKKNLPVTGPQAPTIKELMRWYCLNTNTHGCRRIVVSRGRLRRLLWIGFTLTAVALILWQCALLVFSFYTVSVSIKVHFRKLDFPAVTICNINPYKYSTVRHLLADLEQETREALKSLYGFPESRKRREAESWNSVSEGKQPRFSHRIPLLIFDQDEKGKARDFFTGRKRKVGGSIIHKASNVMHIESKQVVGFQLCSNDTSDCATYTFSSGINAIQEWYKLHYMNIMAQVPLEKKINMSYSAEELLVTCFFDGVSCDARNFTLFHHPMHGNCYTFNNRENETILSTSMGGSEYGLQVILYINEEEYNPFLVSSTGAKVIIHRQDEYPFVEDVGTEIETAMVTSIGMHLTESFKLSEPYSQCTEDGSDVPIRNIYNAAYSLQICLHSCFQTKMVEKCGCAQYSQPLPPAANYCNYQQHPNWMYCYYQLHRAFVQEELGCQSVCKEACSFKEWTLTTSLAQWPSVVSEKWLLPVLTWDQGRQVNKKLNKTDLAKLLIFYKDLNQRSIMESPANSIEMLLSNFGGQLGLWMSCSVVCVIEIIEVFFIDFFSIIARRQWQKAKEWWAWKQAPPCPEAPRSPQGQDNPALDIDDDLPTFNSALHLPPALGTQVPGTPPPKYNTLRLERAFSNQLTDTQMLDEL
Nature of the series: Airway surface liquid (ASL) height in human bronchial epithelial cultures by XZ-confocal microscopy. Type of series: cell-based. As to conditions: peptides added mucosally to HBECs at 30 μM, ASL height measured 3 h later; FIGS. 2A-2B. From the text: Cells were harvested by enzymatic digestion from human bronchial tissue as previously described under a protocol approved by the UNC School of Medicine IRB (Tarran et al., J. Gen. Physiol. 127:591 (2006)). Human excess donor lungs and excised recipient lungs were obtained at the time of lung transplantation from portions of main stem or […] bronchi and cells were harvested by enzymatic digestion. All preparations were maintained at an air-liquid interface in a modified bronchial epithelial medium and used 2-5 weeks after seeding on 12 mm T-Clear inserts (Corning Costar) coated with human placental type VI collagen (Sigma). Phosphate buffered saline (PBS) was used for washing human bronchial epithelial culture mucosal surfaces.
To label airway surface liquid, Ringer containing rhodamine-dextran (2 mg/ml; Invitrogen) was added to human bronchial epithelial culture mucosal surfaces. […] 10 points per culture were scanned and an average airway surface liquid height determined. […]
To confirm our alanine-scan data, we made a peptide of subsequence A (LPVPLDQT (SEQ ID NO:113); FIG. 1). […] Peptides were added mucosally to HBECs at 30 μM and ASL height measured 3 h later by XZ-confocal microscopy. […]

“Also recorded” adds a separate entry of the source.

“H-LPVPLDQT-NH2 [SEQ ID NO:113, LPVPLDQT]”: the “susceptibility to proteolytic degradation” value in the series with proteases is “more susceptible to proteolytic degradation”. The “activity on ASL height / inhibition of ENaC compared with S18” value at ENaC is “retained similar activity to S18; also recorded: required for inhibition of ENaC and preservation of ASL height”.
